From patent publication US20240239752A1, “BICYCLIC HETEROAROMATIC INHIBITORS OF KLK5” (BioCryst Pharmaceuticals, Inc., priority 2021, published 2024)

target: T1, recombinant human KLK5 (Homo sapiens, UniProt Q9Y337); test: Kallikrein (KLK) 5 enzymatic assay (Boc-VPR-AMC fluorogenic substrate); assay type: biochemical; settings: recombinant human KLK5 0.1 μg/well, Boc-VPR-AMC 100 μM, pH 7.5, room temperature, 1% DMSO; tested a minimum of three times
T1 construct: purchased Novoprotein or R&D Systems C415 or 1108-SE
T1 sequence (Q9Y337 23-293): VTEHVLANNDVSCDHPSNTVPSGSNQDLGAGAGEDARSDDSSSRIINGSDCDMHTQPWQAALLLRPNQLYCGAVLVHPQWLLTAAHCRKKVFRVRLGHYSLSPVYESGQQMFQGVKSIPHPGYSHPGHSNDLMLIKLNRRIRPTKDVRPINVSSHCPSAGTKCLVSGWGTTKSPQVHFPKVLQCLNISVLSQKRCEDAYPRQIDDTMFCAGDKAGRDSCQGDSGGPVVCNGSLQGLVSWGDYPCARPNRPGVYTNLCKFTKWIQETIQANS
Procedure, shortened: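 Recombinant human KLK5 (0.1 μg/well) was preincubated with compound at room temperature in 0.1 M NaH2PO4, pH 7.5, 1% DMSO, then started with 100 μM Boc-VPR-AMC. The rate was followed at 380/460 nm, and IC50 came from percent inhibition relative to enzyme alone, with at least three runs.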

IC50 [nM]	Structure (SMILES)
< 1000	COCCC1(CCOC)CC(Oc2ccccc2CC(=O)O)c2cc(-c3cccc4c(N)nccc34)ccc21 (centres unmarked) [Compound 447b, 2-(2-((6-(1-aminoisoquinolin-5-yl)-3,3-bis(2-methoxyethyl)-2,3-dihydro-1H-inden-1-yl)oxy)phenyl)acetic acid]
< 1000	Cc1cccc(OC2CC3(CCN(S(C)(=O)=O)CC3)c3ccc(-c4ccc5ccnc(N)c5c4)cc32)c1CC(=O)O (centres unmarked) [Compound 448c, 2-(2-((5-(1-aminoisoquinolin-7-yl)-1′-(methylsulfonyl)-2,3-dihydrospiro[indene-1,4′-piperidin]-3-yl)oxy)-6-methylphenyl)acetic acid]
< 1000	Cc1cccc(OC2CC3(CCN(S(C)(=O)=O)CC3)c3ccc(-c4cccc5c(N)nccc45)cc32)c1CC(=O)O (centres unmarked) [Compound 449b, 2-(2-((5-(1-aminoisoquinolin-5-yl)-1′-(methylsulfonyl)-2,3-dihydrospiro[indene-1,4′-piperidin]-3-yl)oxy)-6-methylphenyl)acetic acid]
< 1000	COC(=O)N1CCC2(CC1)CC(Oc1cc(OC)ccc1CC(=O)O)c1cc(-c3ccc4ccnc(N)c4c3)ccc12 (centres unmarked) [Compound 452c, 2-(2-((5-(1-aminoisoquinolin-7-yl)-1′-(methoxycarbonyl)-2,3-dihydrospiro[indene-1,4′-piperidin]-3-yl)oxy)-4-methoxyphenyl)acetic acid]
< 1000	COC(=O)N1CCC2(CC1)CC(Oc1cc(OC)ccc1CC(=O)O)c1cc(-c3cccc4c(N)nccc34)ccc12 (centres unmarked) [Compound 453b, 2-(2-((5-(1-aminoisoquinolin-5-yl)-1′-(methoxycarbonyl)-2,3-dihydrospiro[indene-1,4′-piperidin]-3-yl)oxy)-4-methoxyphenyl)acetic acid]
1000 to 10000	COC(=O)N1CCC2(CC1)CC(Oc1c(C#N)cccc1CC(=O)O)c1cc(-c3ccc4ccnc(N)c4c3)ccc12 (centres unmarked) [Compound 454c, 2-(2-((5-(1-aminoisoquinolin-7-yl)-1′-(methoxycarbonyl)-2,3-dihydrospiro[indene-1,4′-piperidin]-3-yl)oxy)-3-cyanophenyl)acetic acid]
1000 to 10000	COC(=O)N1CCC2(CC1)CC(Oc1c(C#N)cccc1CC(=O)O)c1cc(-c3cccc4c(N)nccc34)ccc12 (centres unmarked) [Compound 455b, 2-(2-((5-(1-aminoisoquinolin-5-yl)-1′-(methoxycarbonyl)-2,3-dihydrospiro[indene-1,4′-piperidin]-3-yl)oxy)-3-cyanophenyl)acetic acid]
< 1000	CC(C)N1CCN(C2CC(Oc3ccccc3CC(=O)O)c3cc(-c4cccc5c(N)nccc45)ccc32)CC1 (centres unmarked) [Compound 456g, 2-(2-((6-(1-aminoisoquinolin-5-yl)-3-(4-isopropylpiperazin-1-yl)-2,3-dihydro-1H-inden-1-yl)oxy)phenyl)acetic acid]
< 1000	CC(C)N1CCN(C2CC(Oc3ccccc3CC(=O)O)c3cc(-c4ccc5ccnc(N)c5c4)ccc32)CC1 (centres unmarked) [Compound 457b]
< 1000	Nc1nccc2c(-c3ccc4c(c3)c(COc3ccccc3CC(=O)O)cn4C3CCOC3)cccc12 (centres unmarked) [Compound 458f, 2-(2-((5-(1-aminoisoquinolin-5-yl)-1-(tetrahydrofuran-3-yl)-1H-indol-3-yl)methoxy)phenyl)acetic acid]
< 1000	Nc1nccc2c(-c3ccc4c(c3)[C@H](Oc3ccccc3CC(=O)O)C[C@H]4N3CCCCC3)cccc12 [Compound 459f, (+)-trans 2-(2-(((1R,3R)-6-(1-aminoisoquinolin-5-yl)-3-(piperidin-1-yl)-2,3-dihydro-1H-inden-1-yl)oxy)phenyl)acetic acid]
1000 to 10000	Nc1nccc2c(-c3ccc4c(c3)[C@@H](Oc3ccccc3CC(=O)O)C[C@@H]4N3CCCCC3)cccc12 [Compound 459g, (−)-trans 2-(2-(((1S,3S)-6-(1-aminoisoquinolin-5-yl)-3-(piperidin-1-yl)-2,3-dihydro-1H-inden-1-yl)oxy)phenyl)acetic acid]

Structure (SMILES)	IC50 [nM]
Cc1cccc(OC2CC3(CCN(C(=O)OCC(C)C)CC3)c3ccc(-c4ccc5ccnc(N)c5c4)cc32)c1CC(=O)O (centres unmarked) [Compound 450c, 2-(2-((5-(1-aminoisoquinolin-7-yl)-1′-(isobutoxycarbonyl)-2,3-dihydrospiro[indene-1,4′-piperidin]-3-yl)oxy)-6-methylphenyl)acetic acid]	< 1000
Cc1cccc(OC2CC3(CCN(C(=O)OCC(C)C)CC3)c3ccc(-c4cccc5c(N)nccc45)cc32)c1CC(=O)O (centres unmarked) [Compound 451b, 2-(2-((5-(1-aminoisoquinolin-5-yl)-1′-(isobutoxycarbonyl)-2,3-dihydrospiro[indene-1,4′-piperidin]-3-yl)oxy)-6-methylphenyl)acetic acid]	< 1000
